Measured values as given in the Bradley open melting point set (2014).
Where “and” joins values, the source holds several entries; their conditions need not be identical. Equal values may be shown once.

SMILES	melting point
CCOC(=O)/C=C/C(=O)OCC [Diethyl (2E)-but-2-enedioate]	1 °C
O=C(c1ccccc1)c1ccc(Cl)cc1 [4-chlorobenzophenone]	76 °C
CCOC(=O)C(C(=O)OCC)c1ccccc1 [diethyl phenylmalonate]	16 °C
NCC[C@H](O)C(=O)N[C@@H]1C[C@H](N)[C@@H](O[C@H]2O[C@H](CN)[C@@H](O)[C@H](O)[C@H]2O)[C@H](O)[C@H]1O[C@H]1O[C@H](CO)[C@@H](O)[C@H](N)[C@H]1O [Amikacin]	204 °C
c1ccc(-c2cccc(-c3ccccc3)c2)cc1 [m-terphenyl]	87 °C
CC(C)C=O [2-Methylpropanal]	-65 °C
CC(C)C1=C(O)C(=O)C2=C(C1=O)C(O)CC1C(C)(C)CCCC21C (centres undefined)	174 °C
Nn1cnnc1 [4-amino-1,2,4-triazole]	86 °C
C=CCC1(C2C=CCCC2)C(=O)NC(=S)NC1=O (centres undefined) [thialbarbital]	148 °C
CCCCCCCCCCCC(C)O (centres undefined) [2-tridecanol]	25 °C
NCCCNCCCCNCCCN [spermine]	29 °C
O=C(O)C[C@@H](O)C(=O)O [D-malic acid]	102 °C
OC(c1ccccc1)c1ccccc1 [benzhydrol]	66 °C
CCOC(=O)C(NC(C)=O)C(=O)OCC [diethyl acetamidomalonate]	98 °C
O=c1[nH]c2ccc([N+](=O)[O-])cc2o1 [6-nitro-2(3h)-benzoxazolone]	246 °C
C=Cc1ccc(B(O)O)cc1 [4-vinylbenzeneboronic acid]	190 °C
O=C(c1ccccc1)C(O)c1ccccc1 (centres undefined) [Benzoin]	137 °C
CCOCCOCCOCC [1-Ethoxy-2-(2-ethoxyethoxy)ethane]	-44 °C
Clc1cccc2ccccc12 [1-Chloronaphthalene]	-21.5 °C
CC(C)(C)C1=CC(=O)C=C(C(C)(C)C)C1=O [2,6-di-tert-butyl-p-benzoquinone]	67 °C

SMILES	melting point
CC(=O)N1CCN(c2ccc(OCC3COC(Cn4ccnc4)(c4ccc(Cl)cc4Cl)O3)cc2)CC1 (centres undefined)	146 °C
COC(=O)c1ccc(O)cc1 [methyl 4-hydroxybenzoate]	131 °C and 127 °C
O=C(O)Cc1ccccc1 [phenylacetic acid]	77.5 °C
Nc1ccccc1-c1ccccc1 [2-aminobiphenyl]	50 °C
CC(C)CCCC(C)C1CCC2C3CC(O)C4=CC(=O)CCC4(C)C3CCC12C (centres undefined) [6-hydroxycholest-4-en-3-one]	155 °C
CC(C)NCC(O)COc1cccc2ccccc12 (centres undefined) [propranolol]	162 °C
CC(Cl)C(=O)O (centres undefined) [2-Chloropropanoic acid]	-13 °C
Cc1ccc(CCc2ccc(C)cc2)cc1 [1,2-di(p-tolyl)ethane]	81 °C
CCCN(CC1CC1)c1c([N+](=O)[O-])cc(C(F)(F)F)cc1[N+](=O)[O-] [Profluralin]	32 °C
Nc1c(Cl)cc([N+](=O)[O-])cc1[N+](=O)[O-] [6-chloro-2,4-dinitroaniline]	157 °C
CC(=O)N(C(C)=O)c1cc(/C=C/C(=O)O)ccc1/C=C/C(=O)O	313 °C
CC(=O)OCC(COC(C)=O)OC(C)=O [glycerol triacetate]	3 °C
CC(C)c1ccc(/C=C/[N+](=O)[O-])cc1 [4-isopropyl-beta-nitrostyrene]	37 °C
O=C(O)C(Br)(Br)Br [tribromoacetic acid]	132 °C
CCCCCCCCCCc1ccc(-c2ccccc2)cc1 [4-n-decylbiphenyl]	53 °C
Sc1ccccn1 [Pyridine-2-thiol]	129 °C
Cc1cc(C#N)cc(C#N)c1 [5-methylisophthalonitrile]	164 °C
C=C(C)c1ccc(C(=C)C)cc1 [p-diisopropenylbenzene]	66 °C
O=C(O)/C=C(/CC(=O)O)C(=O)O [cis-aconitic acid]	118 °C
Nc1ccc(Cl)cc1N [4-chloro-o-phenylenediamine]	72 °C

SMILES	melting point
COC(=O)c1ccc(O)cc1 [methyl p-hydroxybenzoate]	131 °C
O=C1NC(=O)c2c1cccc2[N+](=O)[O-] [3-nitrophthalimide]	219 °C
CC(=O)Nc1ccc(/N=N/c2ccc(/N=N/c3ccc(/N=N/c4ccc(NC(C)=O)cc4)cc3)cc2)cc1	247 °C
O=[N+]([O-])c1ccc(Cl)cc1[N+](=O)[O-] [1-chloro-3,4-dinitrobenzene]	23 °C
C/C=C\c1ccccc1 [cis-1-phenyl-1-propene]	-62 °C
O=C(Cl)c1cc([N+](=O)[O-])cc([N+](=O)[O-])c1 [3,5-Dinitrobenzoyl chloride]	69 °C
[O-][n+]1ccc2ccccc2c1 [isoquinoline n-oxide]	104 °C
c1ccc2cc3c(ccc4ccccc43)cc2c1 [benzanthracene]	160 °C
NCCNCCNCCN [N,N'-Bis(2-aminoethyl)ethane-1,2-diamine]	12 °C
CC(=O)Br [acetyl bromide]	-96 °C
C=CC=O [acrolein]	-87 °C
O=C(CBr)c1ccccc1 [2-bromoacetophenone]	50 °C
ClCc1ccc(Br)cc1 [4-bromobenzyl chloride]	40 °C
C=C[C@H]1C[N@@]2CC[C@H]1C[C@@H]2[C@@H](O)c1ccnc2ccccc12 [(9S)-Cinchonan-9-ol]	265 °C
CCCCC1C(=O)N(c2ccccc2)N(c2ccccc2)C1=O [Phenylbutazone]	105 °C
CCCCCCC(=O)OCC [ethyl_heptanoate]	-66 °C
O=C1C(c2ccccc2)=C(c2ccccc2)C(c2ccccc2)=C1c1ccccc1 [2,3,4,5-Tetraphenylcyclopenta-2,4-dien-1-one]	218 °C
O=C(O)c1c(Cl)cc(Cl)cc1Cl [2,4,6-trichlorobenzoic acid]	163 °C
c1ccc2c(c1)oc1ccccc12 [dibenzofuran]	81 °C
CCOC(=O)CCCCC(=O)OCC [diethyl_adipate]	-18 °C

Further lines, results first:

melting point	SMILES
154 °C	OC[C@H]1O[C@@H](Oc2ccccc2)[C@H](O)[C@@H](O)[C@H]1O [phenyl beta-D-galactopyranoside]
58 °C	CCCC1COC(c2ccc(C#N)cc2)OC1 (centres undefined) [2-(4-cyanophenyl)-5-n-propyl-1,3-dioxane]
-19 °C	OC1CCCC1 [cyclopentanol]
28 °C	Cc1ccc(Br)cc1 [4-bromotoluene]
140 °C	O=Cc1cccc2c1CCOC2=O [erythrocentaurin]
163 °C	Cc1occc(=O)c1O [3-hydroxy-2-methyl-4-pyrone]
112 °C	COc1ccc(S(N)(=O)=O)cc1 [4-methoxybenzenesulfonamide]
149 °C	O=C(O)c1ccccc1Br [2-bromobenzoic acid]
110 °C	Cc1cccc(C(=O)O)c1 [3-Methylbenzoic acid]
105 °C	Cc1ccccc1C(=O)O [2-Methylbenzoic acid]
-82 °C	C=Cc1cccc(C)c1 [3-methylstyrene]
-18 °C	CCc1ccccc1O [2-ethylphenol]
225 °C	C#C[C@]5(O)CC[C@H]4[C@H]3[C@@H]([C@@]2(/C(=C\c1oncc1C2)CC3)C)CC[C@@]45C [danazol]
237 °C	O=C(O)c1cccnc1 [Nicotinic acid]
56 °C and 57 °C	COc1ccc(O)cc1 [4-methoxyphenol]
75 °C	O=C1CCC(c2ccccc2)c2ccccc21 (centres undefined) [1(2H)-Naphthalenone, 3,4-dihydro-4-phenyl-]
-68 °C	Cc1ccc(C(C)C)cc1 [p-cymene]
-21 °C	CC(=O)c1ccc2c(c1)CCCC2 [6-acetyl-1,2,3,4-tetrahydronaphthalene]
59 °C	CC(C)[C@@H](NC(=O)OCc1ccccc1)C(=O)O [N-benzyloxycarbonyl-D-valine]
2 °C	NC=O [formamide]

melting point	SMILES
166 °C	OB(O)c1cccc(Br)c1 [3-bromobenzeneboronic acid]
80 °C	NC1=NCCS1 [2-amino-2-thiazoline]
94 °C	O=[N+]([O-])c1ccc2c(c1)OCCOCCOCCOCCO2 [4-nitrobenzo-15-crown-5]
177 °C	Nc1ccc(S(=O)(=O)c2ccc(N)cc2)cc1 [4,4'-diaminodiphenyl sulfone]
-85 °C	C[C@@H]1CNC[C@H](C)O1 [cis-2,6-dimethylmorpholine]
41 °C	Cc1cc(CO)nn1C [1H-pyrazole-3-methanol, 1,5-dimethyl-]
2 °C	Cc1cc(C)c(Br)c(C)c1 [2-bromomesitylene]
153 °C	NS(=O)(=O)c1ccccc1 [benzenesulfonamide]
90 °C	COC(=O)C1Cc2ccccc2C(=O)O1 (centres undefined) [methyl 1-oxo-3,4-dihydro-1H-isochromene-3-carboxylate]
94 °C	N#Cc1ccccc1O [2-hydroxybenzonitrile]
115 °C	Cc1cc(O)cc(C)c1Cl [4-chloro-3,5-dimethylphenol]
122 °C (5×) and 123 °C (2×)	O=C(O)c1ccccc1 [benzoic acid]
86 °C	O=[N+]([O-])c1ccc(C2OCCO2)cc1 [4-nitrobenzaldehyde ethylene glycol acetal]
89 °C	OCC1COc2ccccc2O1 (centres undefined) [2-hydroxymethyl-1,4-benzodioxane]
178 °C	Cc1cc(C(=O)OCC(=N)O)c(C)n1-c1ccc(F)cc1 [OSM-S-05]
316 °C	Nc1nc(N)c2nc(-c3ccccc3)c(N)nc2n1 [triamterene]
91 °C	OCCc1ccc(O)cc1 [2-(4-hydroxyphenyl)ethanol]
323 °C	Oc1noc2nc3ccccc3nc12 [isoxazolo[4,5-b]quinoxalin-3(2H)-one]
59 °C	O=C=Nc1ccc(Cl)cc1Cl [2,4-dichlorophenyl isocyanate]
